In the supplement of paper PMC10307832:

Tests used:
Assay in all cases: relative viability (nuclei count vs DMSO), 5 days (fraction); higher = more cells survive
NCI-H2087 = system: NCI-H2087
Summary of the method: (§1)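 Lung cancer cell lines in 1536-well plates got either a single drug or a fixed anchor-drug dose together with five library-drug doses (not always all listed) in √10 steps, by pin tool, on the day after seeding. Nuclei were counted after 5 days, and relative viability is the treated-to-vehicle ratio of nuclei counts. Values are medians of duplicate plates.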

NCI-H1944 = system: NCI-H1944
Summary of the method: as §1

NCI-H1651 = system: NCI-H1651
Summary of the method: as §1

LC-2-ad = system: LC-2-ad
Summary of the method: as §1

LOU-NH91 = system: LOU-NH91
Summary of the method: as §1

RERF-LC-KJ = system: RERF-LC-KJ
Summary of the method: as §1

NCI-H2228 = system: NCI-H2228
Summary of the method: as §1

PC-3 [JPC-3] = system: PC-3 [JPC-3]
Summary of the method: as §1

NCI-H3122 = system: NCI-H3122
Summary of the method: as §1

ChaGo-K-1 = system: ChaGo-K-1
Summary of the method: as §1

NCI-H2170 = system: NCI-H2170
Summary of the method: as §1

LU99A = system: LU99A
Summary of the method: as §1

NCI-H2405 = system: NCI-H2405
Summary of the method: as §1

HCC-78 = system: HCC-78
Summary of the method: as §1

NCI-H1755 = system: NCI-H1755
Summary of the method: as §1

NCI-H1395 = system: NCI-H1395
Summary of the method: as §1

NCI-H460 = system: NCI-H460
Summary of the method: as §1

CAL-12T = system: CAL-12T
Summary of the method: as §1

UMC-11 = system: UMC-11
Summary of the method: as §1

HCC-366 = system: HCC-366
Summary of the method: as §1

NCI-H1793 = system: NCI-H1793
Summary of the method: as §1

## Nc1ccn([C@@H]2O[C@H](CO)[C@@H](O)[C@@H]2O)c(=O)n1 [Cytarabine] + CC1(C)CCC(c2ccc(Cl)cc2)=C(CN2CCN(c3ccc(C(=O)NS(=O)(=O)c4ccc(N[C@H](CCN5CCOCC5)CSc5ccccc5)c(S(=O)(=O)C(F)(F)F)c4)cc3)CC2)C1 [Navitoclax] (partner 0.5 µM)
NCI-H2087; first compound 0.005 µM
  relative viability: 0.973
NCI-H2087; first compound 0.01581 µM
  relative viability: 1.04
NCI-H2087; first compound 0.05 µM
  relative viability: 0.924
NCI-H2087; first compound 0.1581 µM
  relative viability: 0.542
NCI-H2087; first compound 0.5 µM
  relative viability: 0.452
NCI-H1944; first compound 0.005 µM
  relative viability: 0.605
NCI-H1944; first compound 0.01581 µM
  relative viability: 0.363
NCI-H1944; first compound 0.05 µM
  relative viability: 0.268
NCI-H1944; first compound 0.1581 µM
  relative viability: 0.198
NCI-H1944; first compound 0.5 µM
  relative viability: 0.201
NCI-H1651; first compound 0.005 µM
  relative viability: 0.993
NCI-H1651; first compound 0.01581 µM
  relative viability: 1.18
NCI-H1651; first compound 0.05 µM
  relative viability: 1.24
NCI-H1651; first compound 0.1581 µM
  relative viability: 0.625
NCI-H1651; first compound 0.5 µM
  relative viability: 0.3
LC-2-ad; first compound 0.005 µM
  relative viability: 0.385
LC-2-ad; first compound 0.01581 µM
  relative viability: 0.328
LC-2-ad; first compound 0.05 µM
  relative viability: 0.268
LC-2-ad; first compound 0.1581 µM
  relative viability: 0.2
LC-2-ad; first compound 0.5 µM
  relative viability: 0.188
LOU-NH91; first compound 0.005 µM
  relative viability: 0.693
LOU-NH91; first compound 0.01581 µM
  relative viability: 0.606
LOU-NH91; first compound 0.05 µM
  relative viability: 0.463
LOU-NH91; first compound 0.1581 µM
  relative viability: 0.332
LOU-NH91; first compound 0.5 µM
  relative viability: 0.35
RERF-LC-KJ; first compound 0.005 µM
  relative viability: 0.772
RERF-LC-KJ; first compound 0.01581 µM
  relative viability: 1.02
RERF-LC-KJ; first compound 0.05 µM
  relative viability: 1.08
RERF-LC-KJ; first compound 0.1581 µM
  relative viability: 0.509
RERF-LC-KJ; first compound 0.5 µM
  relative viability: 0.325
NCI-H2228; first compound 0.005 µM
  relative viability: 0.504
NCI-H2228; first compound 0.01581 µM
  relative viability: 0.544
NCI-H2228; first compound 0.05 µM
  relative viability: 0.0741
NCI-H2228; first compound 0.1581 µM
  relative viability: 0.0929
NCI-H2228; first compound 0.5 µM
  relative viability: 0.0928
PC-3 [JPC-3]; first compound 0.005 µM
  relative viability: 0.753
PC-3 [JPC-3]; first compound 0.01581 µM
  relative viability: 0.774
PC-3 [JPC-3]; first compound 0.05 µM
  relative viability: 0.7
PC-3 [JPC-3]; first compound 0.1581 µM
  relative viability: 0.605
PC-3 [JPC-3]; first compound 0.5 µM
  relative viability: 0.556
NCI-H3122; first compound 0.005 µM
  relative viability: 0.968
NCI-H3122; first compound 0.01581 µM
  relative viability: 0.877
NCI-H3122; first compound 0.05 µM
  relative viability: 0.876
NCI-H3122; first compound 0.1581 µM
  relative viability: 0.682
NCI-H3122; first compound 0.5 µM
  relative viability: 0.457
ChaGo-K-1; first compound 0.005 µM
  relative viability: 0.74
ChaGo-K-1; first compound 0.01581 µM
  relative viability: 0.505
ChaGo-K-1; first compound 0.05 µM
  relative viability: 0.453
ChaGo-K-1; first compound 0.1581 µM
  relative viability: 0.364
ChaGo-K-1; first compound 0.5 µM
  relative viability: 0.37
NCI-H2170; first compound 0.01581 µM
  relative viability: 0.448
NCI-H2170; first compound 0.05 µM
  relative viability: 0.361
NCI-H2170; first compound 0.1581 µM
  relative viability: 0.28
NCI-H2170; first compound 0.5 µM
  relative viability: 0.263
LU99A; first compound 0.005 µM
  relative viability: 0.906
LU99A; first compound 0.01581 µM
  relative viability: 0.826
LU99A; first compound 0.05 µM
  relative viability: 0.771
LU99A; first compound 0.1581 µM
  relative viability: 0.726
LU99A; first compound 0.5 µM
  relative viability: 0.56
NCI-H2405; first compound 0.005 µM
  relative viability: 0.851
NCI-H2405; first compound 0.01581 µM
  relative viability: 0.671
NCI-H2405; first compound 0.05 µM
  relative viability: 0.424
NCI-H2405; first compound 0.1581 µM
  relative viability: 0.373
NCI-H2405; first compound 0.5 µM
  relative viability: 0.114
HCC-78; first compound 0.005 µM
  relative viability: 0.879
HCC-78; first compound 0.01581 µM
  relative viability: 0.652
HCC-78; first compound 0.05 µM
  relative viability: 0.684
HCC-78; first compound 0.1581 µM
  relative viability: 0.364
HCC-78; first compound 0.5 µM
  relative viability: 0.219
NCI-H1755; first compound 0.005 µM
  relative viability: 0.914
NCI-H1755; first compound 0.01581 µM
  relative viability: 0.821
NCI-H1755; first compound 0.05 µM
  relative viability: 0.583
NCI-H1755; first compound 0.1581 µM
  relative viability: 0.201
NCI-H1755; first compound 0.5 µM
  relative viability: 0.194
NCI-H1395; first compound 0.005 µM
  relative viability: 1.2
NCI-H1395; first compound 0.01581 µM
  relative viability: 0.849
NCI-H1395; first compound 0.05 µM
  relative viability: 0.65
NCI-H1395; first compound 0.1581 µM
  relative viability: 0.48
NCI-H1395; first compound 0.5 µM
  relative viability: 0.368
NCI-H460; first compound 0.005 µM
  relative viability: 1.06
NCI-H460; first compound 0.01581 µM
  relative viability: 1.16
NCI-H460; first compound 0.05 µM
  relative viability: 0.323
NCI-H460; first compound 0.1581 µM
  relative viability: 0.0167
NCI-H460; first compound 0.5 µM
  relative viability: 0.0173
CAL-12T; first compound 0.005 µM
  relative viability: 1.24
CAL-12T; first compound 0.01581 µM
  relative viability: 1.4
CAL-12T; first compound 0.05 µM
  relative viability: 1.13
CAL-12T; first compound 0.1581 µM
  relative viability: 0.598
CAL-12T; first compound 0.5 µM
  relative viability: 0.244
UMC-11; first compound 0.005 µM
  relative viability: 0.268
UMC-11; first compound 0.01581 µM
  relative viability: 0.197
UMC-11; first compound 0.05 µM
  relative viability: 0.2
UMC-11; first compound 0.1581 µM
  relative viability: 0.141
UMC-11; first compound 0.5 µM
  relative viability: 0.125
HCC-366; first compound 0.005 µM
  relative viability: 0.889
HCC-366; first compound 0.01581 µM
  relative viability: 0.918
HCC-366; first compound 0.05 µM
  relative viability: 0.328
HCC-366; first compound 0.1581 µM
  relative viability: 0.0444
HCC-366; first compound 0.5 µM
  relative viability: 0.0177
NCI-H1793; first compound 0.005 µM
  relative viability: 0.273
NCI-H1793; first compound 0.01581 µM
  relative viability: 0.333
NCI-H1793; first compound 0.05 µM
  relative viability: 0.271
NCI-H1793; first compound 0.1581 µM
  relative viability: 0.261
NCI-H1793; first compound 0.5 µM
  relative viability: 0.244
